Test results: ChEMBL document CHEMBL5465560, “Selectivity Literature for EUbOPEN Chemogenomic Library” (2024)
Values belong to the compound of their own block, whether it stands above or below them.

How the values were obtained:
[1] = target: T1, Tyrosine-protein kinase receptor TYRO3 (Homo sapiens) (UniProt Q06418); assay: Selectivity interaction (KinomeScan (DiscoverX)) EUB0001619a TYRO3; settings: at 1 µM
T1 sequence (whole entry): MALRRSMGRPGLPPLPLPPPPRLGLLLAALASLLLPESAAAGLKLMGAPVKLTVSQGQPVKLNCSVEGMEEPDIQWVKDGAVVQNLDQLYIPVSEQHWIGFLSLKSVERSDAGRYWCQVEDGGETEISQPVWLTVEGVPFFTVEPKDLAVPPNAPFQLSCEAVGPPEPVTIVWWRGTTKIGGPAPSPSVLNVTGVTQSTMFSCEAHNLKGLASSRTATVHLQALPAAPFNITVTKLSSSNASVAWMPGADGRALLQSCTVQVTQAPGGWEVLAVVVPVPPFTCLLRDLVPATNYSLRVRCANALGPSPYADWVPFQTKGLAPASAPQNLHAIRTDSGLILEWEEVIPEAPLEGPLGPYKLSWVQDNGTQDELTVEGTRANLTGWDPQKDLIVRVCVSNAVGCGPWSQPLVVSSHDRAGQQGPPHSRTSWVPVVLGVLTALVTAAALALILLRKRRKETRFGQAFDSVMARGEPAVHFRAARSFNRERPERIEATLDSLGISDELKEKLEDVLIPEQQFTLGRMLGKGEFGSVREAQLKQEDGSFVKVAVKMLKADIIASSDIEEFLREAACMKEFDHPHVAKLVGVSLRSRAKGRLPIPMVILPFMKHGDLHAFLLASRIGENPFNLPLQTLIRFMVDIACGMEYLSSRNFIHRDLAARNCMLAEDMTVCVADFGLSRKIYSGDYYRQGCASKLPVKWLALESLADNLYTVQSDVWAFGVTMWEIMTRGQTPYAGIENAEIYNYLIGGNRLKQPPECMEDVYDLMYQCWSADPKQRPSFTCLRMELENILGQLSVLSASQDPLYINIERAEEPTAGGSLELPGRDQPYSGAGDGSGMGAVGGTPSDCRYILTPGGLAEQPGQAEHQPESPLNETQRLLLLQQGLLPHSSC

[2] = target: T2, Serine/threonine-protein kinase tousled-like 1 (Homo sapiens) (UniProt Q9UKI8); assay: Selectivity interaction (ActivX KiNativ screen (kinase selectivity in THP-1 cell lysates)) EUB0000639a TLK1; type: subcellular; settings: lysate, at 5 µM
T2 sequence (whole entry): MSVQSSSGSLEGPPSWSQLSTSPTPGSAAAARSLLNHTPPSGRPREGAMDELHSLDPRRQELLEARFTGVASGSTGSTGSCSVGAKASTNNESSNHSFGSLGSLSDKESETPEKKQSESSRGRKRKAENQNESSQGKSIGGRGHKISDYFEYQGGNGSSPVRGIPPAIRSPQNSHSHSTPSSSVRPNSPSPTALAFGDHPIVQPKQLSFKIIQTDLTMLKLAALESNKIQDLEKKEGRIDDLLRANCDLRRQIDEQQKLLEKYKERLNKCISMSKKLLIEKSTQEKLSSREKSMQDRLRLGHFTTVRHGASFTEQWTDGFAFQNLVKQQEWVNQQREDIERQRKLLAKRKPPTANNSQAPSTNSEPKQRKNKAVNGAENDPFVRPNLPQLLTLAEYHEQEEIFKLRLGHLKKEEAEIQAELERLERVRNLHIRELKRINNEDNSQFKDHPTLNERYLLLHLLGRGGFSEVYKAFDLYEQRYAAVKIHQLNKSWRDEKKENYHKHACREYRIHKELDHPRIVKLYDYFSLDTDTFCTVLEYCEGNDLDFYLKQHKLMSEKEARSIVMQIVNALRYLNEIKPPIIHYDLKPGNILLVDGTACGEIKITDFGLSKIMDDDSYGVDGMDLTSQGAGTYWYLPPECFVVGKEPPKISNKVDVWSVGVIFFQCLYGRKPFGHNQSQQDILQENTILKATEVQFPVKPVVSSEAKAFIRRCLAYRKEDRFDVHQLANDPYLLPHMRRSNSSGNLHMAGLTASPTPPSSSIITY

[3] = target: CREB-binding protein (Homo sapiens, UniProt Q92793); assay: Selectivity interaction (Bromodomain panel (DSF asssay)) EUB0000270b CREBBP
[4] = target: Kappa-type opioid receptor (Homo sapiens, UniProt P41145); assay: Selectivity interaction (Panel of kinases, GPCRs, ion channels and transporters (enzymatic assay)) EUB0000266bCl OPRK1
[5] = target: T3, Serine/threonine-protein kinase PLK4 (Homo sapiens) (UniProt O00444); assay: Selectivity interaction (KinomeScan (DiscoverX)) EUB0000666a PLK4; settings: at 10 µM
T3 sequence (whole entry): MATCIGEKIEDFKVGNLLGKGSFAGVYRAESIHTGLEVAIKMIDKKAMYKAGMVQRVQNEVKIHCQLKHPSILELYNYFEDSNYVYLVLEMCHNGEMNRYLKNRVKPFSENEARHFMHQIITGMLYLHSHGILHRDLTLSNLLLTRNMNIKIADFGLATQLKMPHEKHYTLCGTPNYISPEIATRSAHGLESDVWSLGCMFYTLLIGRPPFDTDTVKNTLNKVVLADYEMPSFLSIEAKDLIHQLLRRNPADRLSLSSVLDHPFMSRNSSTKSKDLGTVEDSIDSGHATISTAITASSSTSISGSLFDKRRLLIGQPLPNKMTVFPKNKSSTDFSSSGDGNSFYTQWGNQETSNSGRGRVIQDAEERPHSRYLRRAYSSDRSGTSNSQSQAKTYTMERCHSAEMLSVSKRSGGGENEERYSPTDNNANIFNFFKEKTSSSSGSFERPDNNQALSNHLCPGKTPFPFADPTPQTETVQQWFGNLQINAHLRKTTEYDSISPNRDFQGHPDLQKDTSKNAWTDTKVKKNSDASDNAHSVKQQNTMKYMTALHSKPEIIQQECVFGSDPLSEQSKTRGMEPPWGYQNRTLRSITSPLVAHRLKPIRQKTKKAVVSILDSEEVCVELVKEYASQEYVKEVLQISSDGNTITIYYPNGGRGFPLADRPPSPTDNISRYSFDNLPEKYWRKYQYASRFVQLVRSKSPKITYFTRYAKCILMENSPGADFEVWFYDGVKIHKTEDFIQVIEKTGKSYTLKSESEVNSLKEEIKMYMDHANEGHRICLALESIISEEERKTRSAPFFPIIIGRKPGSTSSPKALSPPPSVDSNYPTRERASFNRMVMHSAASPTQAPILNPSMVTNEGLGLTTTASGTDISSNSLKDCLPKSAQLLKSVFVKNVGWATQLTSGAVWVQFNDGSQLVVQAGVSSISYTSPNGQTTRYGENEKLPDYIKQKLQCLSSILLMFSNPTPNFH

CREB-binding protein, sequence (Q92793 2-2442 limits assumed): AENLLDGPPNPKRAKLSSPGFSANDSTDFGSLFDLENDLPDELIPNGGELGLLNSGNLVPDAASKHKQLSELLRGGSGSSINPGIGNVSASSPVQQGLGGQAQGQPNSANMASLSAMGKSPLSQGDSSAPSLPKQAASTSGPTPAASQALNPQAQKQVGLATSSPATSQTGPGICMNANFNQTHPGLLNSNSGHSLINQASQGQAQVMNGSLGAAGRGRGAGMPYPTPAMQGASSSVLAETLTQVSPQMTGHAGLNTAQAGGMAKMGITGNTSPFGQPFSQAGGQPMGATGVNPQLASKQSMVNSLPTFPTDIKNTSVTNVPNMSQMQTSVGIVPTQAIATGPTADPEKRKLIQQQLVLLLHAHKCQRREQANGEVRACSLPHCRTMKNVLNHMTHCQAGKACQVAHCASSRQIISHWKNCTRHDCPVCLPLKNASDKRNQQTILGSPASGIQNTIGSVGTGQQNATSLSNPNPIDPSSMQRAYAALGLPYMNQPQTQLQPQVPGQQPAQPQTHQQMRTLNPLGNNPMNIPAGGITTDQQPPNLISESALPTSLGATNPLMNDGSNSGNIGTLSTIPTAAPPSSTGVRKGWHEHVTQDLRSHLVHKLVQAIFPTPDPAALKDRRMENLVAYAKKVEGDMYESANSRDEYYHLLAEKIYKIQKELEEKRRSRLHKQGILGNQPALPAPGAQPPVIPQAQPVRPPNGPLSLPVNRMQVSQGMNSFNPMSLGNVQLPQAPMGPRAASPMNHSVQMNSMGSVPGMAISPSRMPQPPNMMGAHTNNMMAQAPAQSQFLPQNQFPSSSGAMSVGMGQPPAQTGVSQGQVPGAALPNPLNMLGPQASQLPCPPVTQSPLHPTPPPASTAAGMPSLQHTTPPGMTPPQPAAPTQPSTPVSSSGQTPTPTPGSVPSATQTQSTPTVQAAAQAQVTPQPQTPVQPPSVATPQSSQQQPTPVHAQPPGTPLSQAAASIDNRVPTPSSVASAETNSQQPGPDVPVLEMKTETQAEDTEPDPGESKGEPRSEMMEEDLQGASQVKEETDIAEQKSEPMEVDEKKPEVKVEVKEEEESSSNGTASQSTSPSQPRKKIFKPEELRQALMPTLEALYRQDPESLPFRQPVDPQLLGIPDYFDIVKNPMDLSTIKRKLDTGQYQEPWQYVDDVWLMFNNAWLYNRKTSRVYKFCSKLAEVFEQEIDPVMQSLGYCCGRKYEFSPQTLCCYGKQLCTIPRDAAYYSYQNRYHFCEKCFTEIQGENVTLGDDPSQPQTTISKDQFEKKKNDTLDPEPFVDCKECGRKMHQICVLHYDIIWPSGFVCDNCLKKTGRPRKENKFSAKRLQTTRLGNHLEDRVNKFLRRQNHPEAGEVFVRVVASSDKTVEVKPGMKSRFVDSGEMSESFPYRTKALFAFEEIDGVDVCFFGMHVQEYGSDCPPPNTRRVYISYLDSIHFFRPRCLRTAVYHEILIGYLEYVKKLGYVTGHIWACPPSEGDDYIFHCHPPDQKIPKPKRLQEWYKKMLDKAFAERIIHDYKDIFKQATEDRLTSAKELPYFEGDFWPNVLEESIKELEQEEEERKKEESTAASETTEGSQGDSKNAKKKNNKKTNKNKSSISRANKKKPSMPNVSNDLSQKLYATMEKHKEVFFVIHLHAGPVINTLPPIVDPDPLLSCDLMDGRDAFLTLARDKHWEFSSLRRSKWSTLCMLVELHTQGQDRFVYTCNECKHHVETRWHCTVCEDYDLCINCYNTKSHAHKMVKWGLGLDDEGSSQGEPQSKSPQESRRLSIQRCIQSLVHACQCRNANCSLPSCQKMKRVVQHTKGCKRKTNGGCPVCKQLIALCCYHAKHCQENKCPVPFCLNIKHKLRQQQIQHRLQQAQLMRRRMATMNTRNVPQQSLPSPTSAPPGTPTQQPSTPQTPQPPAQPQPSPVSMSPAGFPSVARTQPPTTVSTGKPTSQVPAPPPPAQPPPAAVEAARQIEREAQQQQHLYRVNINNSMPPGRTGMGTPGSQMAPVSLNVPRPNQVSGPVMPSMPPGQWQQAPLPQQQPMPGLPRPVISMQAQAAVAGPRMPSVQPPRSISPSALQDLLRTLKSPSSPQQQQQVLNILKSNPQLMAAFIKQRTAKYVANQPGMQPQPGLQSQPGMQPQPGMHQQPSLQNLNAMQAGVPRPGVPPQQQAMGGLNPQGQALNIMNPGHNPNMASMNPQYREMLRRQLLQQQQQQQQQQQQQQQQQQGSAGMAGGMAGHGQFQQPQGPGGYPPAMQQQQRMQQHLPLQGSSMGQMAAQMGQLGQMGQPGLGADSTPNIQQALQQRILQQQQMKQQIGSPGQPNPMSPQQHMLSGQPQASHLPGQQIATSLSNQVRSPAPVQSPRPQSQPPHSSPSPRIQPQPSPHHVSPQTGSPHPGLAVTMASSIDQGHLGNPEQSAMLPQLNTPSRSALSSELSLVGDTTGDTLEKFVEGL
Kappa-type opioid receptor, sequence (P41145 whole entry): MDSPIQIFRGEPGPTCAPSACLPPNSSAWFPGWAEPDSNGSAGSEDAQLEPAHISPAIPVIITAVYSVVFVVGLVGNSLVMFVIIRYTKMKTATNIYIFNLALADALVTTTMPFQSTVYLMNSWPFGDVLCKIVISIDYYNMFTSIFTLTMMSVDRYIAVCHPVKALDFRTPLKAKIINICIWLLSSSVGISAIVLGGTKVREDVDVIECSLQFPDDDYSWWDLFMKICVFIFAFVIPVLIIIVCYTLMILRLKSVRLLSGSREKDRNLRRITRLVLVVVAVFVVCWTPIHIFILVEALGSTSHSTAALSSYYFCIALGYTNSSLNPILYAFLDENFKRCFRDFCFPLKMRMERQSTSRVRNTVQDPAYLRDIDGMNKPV

Structure (SMILES): N#Cc1cccc(-c2c[nH]c3ncnc(N4CCOCC4)c23)c1
- % of control [1]: 100%

Structure (SMILES): O=C(NOC[C@H](O)CO)c1ccc(F)c(F)c1Nc1ccc(I)cc1F
- % of control [5]: 86%

The next lines start with the values.

- % of inhibition [2]: 74%
Structure (SMILES): CC[C@@H]1[C@H](F)C(=O)N[C@@H]1COc1nccc2cc(C(N)=O)c(OC)cc12 [ZIMLOVISERTIB]

- dTM [3]: -1.89 K
Structure (SMILES): Cc1cc(CN)cc(C)c1-c1ncn(C)c1-c1cncn1C

- pXC50 [4]: > 4 M
Structure (SMILES): CCn1c(-c2nc3cc(C(=O)N4CCCC(N)C4)ccc3n2C)cc2ccccc21 (stereo not given)
